Holding throughout (assay): relative viability (nuclei count vs DMSO), 5 days (fraction); higher = more cells survive
Compound in experiment [1]: CC(C)(C)c1nc(-c2cccc(NS(=O)(=O)c3c(F)cccc3F)c2F)c(-c2ccnc(N)n2)s1 [Dabrafenib] + N=C(N)NC(=N)NCCc1ccccc1 [Phenformin] (partner 250 µM)
The method in brief:
(§1)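 Relative viability equals treated-well nuclei counts divided by vehicle-well nuclei counts. Counts came from 4× images of lung cancer cell lines grown in 1536-well plates for 5 days after pin-tool dosing on the day after seeding. Dosing used one drug alone or a fixed anchor-drug dose plus five library-drug doses (not always all listed) in √10 steps, and values are medians of duplicate plates.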

Compound in experiment [2]: NC(=O)c1ccc(N(C(N)=O)c2c(F)cccc2F)nc1-c1ccc(F)cc1F [VX-702] + CC(=O)Nc1cccc(-n2c(=O)n(C3CC3)c(=O)c3c(Nc4ccc(I)cc4F)n(C)c(=O)c(C)c32)c1 [Trametinib] (partner 0.02 µM)
The method in brief: as §1

Compound in experiment [3]: NC(=O)c1ccc(N(C(N)=O)c2c(F)cccc2F)nc1-c1ccc(F)cc1F [VX-702] + O=C(CCCCCCC(=O)Nc1ccccc1)NO [Vorinostat] (partner 1 µM)
A digest of the protocol: as §1

Compound in experiment [4]: NC(=O)c1ccc(N(C(N)=O)c2c(F)cccc2F)nc1-c1ccc(F)cc1F [VX-702] + CS(=O)(=O)N1CCN(Cc2cc3nc(-c4cccc5[nH]ncc45)nc(N4CCOCC4)c3s2)CC1 [Pictilisib] (partner 1 µM)
A digest of the protocol:
as §1

Turning to NCI-H1651, the relative viability is 0.35 in experiment [1] (first compound 0.003 µM); 0.352 in experiment [1] (first compound 0.009487 µM); 0.293 in experiment [1] (first compound 0.03 µM); 0.353 in experiment [1] (first compound 0.09487 µM); 0.347 in experiment [1] (first compound 0.3 µM); 0.747 in experiment [2] (first compound 0.02 µM). Besides, the relative viability in experiment [2] (first compound 0.2 µM) was 0.822; in experiment [2] (first compound 0.6325 µM), 0.819; in experiment [2] (first compound 2 µM), 0.884; in experiment [3] (first compound 0.02 µM) it was 0.536; in experiment [3] (first compound 0.2 µM), 0.558; in experiment [3] (first compound 0.6325 µM), 0.53. Moreover, the relative viability was 0.586 in experiment [3] (first compound 2 µM); 0.649 in experiment [4] (first compound 0.02 µM); 0.645 in experiment [4] (first compound 0.2 µM); 0.668 in experiment [4] (first compound 0.6325 µM); 0.57 in experiment [4] (first compound 2 µM).

As to NCI-H1666, the relative viability in experiment [1] (first compound 0.003 µM) was 0.483; in experiment [1] (first compound 0.009487 µM), 0.554; in experiment [1] (first compound 0.03 µM), 0.576; in experiment [1] (first compound 0.09487 µM), 0.583; in experiment [1] (first compound 0.3 µM) it was 0.68; in experiment [2] (first compound 0.02 µM), 0.89. Also, the relative viability in experiment [2] (first compound 0.2 µM) came to 0.819; in experiment [2] (first compound 0.6325 µM), 0.883; in experiment [2] (first compound 2 µM) it was 0.739; in experiment [3] (first compound 0.02 µM), 1.07; in experiment [3] (first compound 0.2 µM), 0.989; in experiment [3] (first compound 0.6325 µM), 0.993. Also, the relative viability was 0.979 in experiment [3] (first compound 2 µM); 0.513 in experiment [4] (first compound 0.02 µM); 0.439 in experiment [4] (first compound 0.2 µM); 0.454 in experiment [4] (first compound 0.6325 µM); 0.263 in experiment [4] (first compound 2 µM).

As for NCI-H1734, the relative viability in experiment [1] (first compound 0.009487 µM) came to 0.302; in experiment [1] (first compound 0.03 µM) it was 0.388; in experiment [1] (first compound 0.09487 µM) it was 0.389; in experiment [1] (first compound 0.3 µM), 0.362; in experiment [2] (first compound 0.02 µM), 0.734; in experiment [2] (first compound 0.2 µM), 0.683. For the same cell line, the relative viability in experiment [2] (first compound 0.6325 µM) amounted to 0.544; in experiment [2] (first compound 2 µM) it was 0.68; in experiment [3] (first compound 0.02 µM), 0.812; in experiment [3] (first compound 0.2 µM) it was 0.759; in experiment [3] (first compound 0.6325 µM), 0.781; in experiment [3] (first compound 2 µM), 0.732. Also, the relative viability in experiment [4] (first compound 0.02 µM) came to 0.516; in experiment [4] (first compound 0.2 µM) it was 0.388; in experiment [4] (first compound 0.6325 µM) it was 0.388; in experiment [4] (first compound 2 µM) it was 0.346.

On to NCI-H1755, for which the relative viability in experiment [1] (first compound 0.003 µM) is 0.565; in experiment [1] (first compound 0.009487 µM), 0.627; in experiment [1] (first compound 0.03 µM), 0.544; in experiment [1] (first compound 0.09487 µM), 0.591; in experiment [1] (first compound 0.3 µM), 0.629; in experiment [2] (first compound 0.02 µM), 0.841. Besides, the relative viability in experiment [2] (first compound 0.2 µM) came out at 0.799; in experiment [2] (first compound 0.6325 µM), 0.838; in experiment [2] (first compound 2 µM), 0.869; in experiment [3] (first compound 0.02 µM) it was 0.929; in experiment [3] (first compound 0.2 µM), 0.748; in experiment [3] (first compound 0.6325 µM) it was 0.731. The relative viability in experiment [3] (first compound 2 µM) was 0.877; in experiment [4] (first compound 0.02 µM), 0.395; in experiment [4] (first compound 0.2 µM) it was 0.389; in experiment [4] (first compound 0.6325 µM), 0.409; in experiment [4] (first compound 2 µM) it was 0.486.

Consider NCI-H1793, for which the relative viability in experiment [1] (first compound 0.009487 µM) stood at 0.398; in experiment [1] (first compound 0.3 µM), 0.39; in experiment [2] (first compound 0.02 µM), 0.438; in experiment [2] (first compound 0.6325 µM) it was 0.452; in experiment [2] (first compound 2 µM), 0.451; in experiment [3] (first compound 0.02 µM) it was 0.669. Further, the relative viability in experiment [3] (first compound 0.6325 µM) was 0.757; in experiment [3] (first compound 2 µM) it was 0.591; in experiment [4] (first compound 0.02 µM), 0.311; in experiment [4] (first compound 0.2 µM), 0.262; in experiment [4] (first compound 0.6325 µM), 0.389; in experiment [4] (first compound 2 µM), 0.252.

Regarding NCI-H1915, the relative viability in experiment [1] (first compound 0.003 µM) came out at 0.392; in experiment [1] (first compound 0.009487 µM) it was 0.402; in experiment [1] (first compound 0.03 µM), 0.266; in experiment [1] (first compound 0.09487 µM), 0.29; in experiment [1] (first compound 0.3 µM) it was 0.272; in experiment [2] (first compound 0.02 µM) it was 0.324. For the same cell line, the relative viability in experiment [2] (first compound 0.2 µM) was found to be 0.294; in experiment [2] (first compound 0.6325 µM) it was 0.302; in experiment [2] (first compound 2 µM) it was 0.319; in experiment [3] (first compound 0.02 µM) it was 0.578; in experiment [3] (first compound 0.2 µM) it was 0.513; in experiment [3] (first compound 0.6325 µM), 0.492. The relative viability in experiment [3] (first compound 2 µM) amounted to 0.548; in experiment [4] (first compound 0.02 µM), 1.14; in experiment [4] (first compound 0.2 µM), 0.848; in experiment [4] (first compound 0.6325 µM) it was 0.949; in experiment [4] (first compound 2 µM) it was 1.1.

NCI-H1944: the relative viability in experiment [1] (first compound 0.003 µM) amounted to 0.182; in experiment [1] (first compound 0.009487 µM), 0.199; in experiment [1] (first compound 0.03 µM) it was 0.188; in experiment [1] (first compound 0.09487 µM) it was 0.222; in experiment [1] (first compound 0.3 µM), 0.208; in experiment [2] (first compound 0.02 µM), 0.426. Besides, the relative viability in experiment [2] (first compound 0.2 µM) was 0.401; in experiment [2] (first compound 0.6325 µM), 0.398; in experiment [2] (first compound 2 µM), 0.378; in experiment [3] (first compound 0.02 µM) it was 0.625; in experiment [3] (first compound 0.2 µM), 0.557; in experiment [3] (first compound 0.6325 µM) it was 0.558. The relative viability amounted to 0.414 in experiment [3] (first compound 2 µM); 0.362 in experiment [4] (first compound 0.02 µM); 0.333 in experiment [4] (first compound 0.2 µM); 0.326 in experiment [4] (first compound 0.6325 µM); 0.284 in experiment [4] (first compound 2 µM).

Consider NCI-H1975, for which the relative viability was 0.227 in experiment [1] (first compound 0.003 µM); 0.411 in experiment [1] (first compound 0.009487 µM); 0.411 in experiment [1] (first compound 0.03 µM); 0.356 in experiment [1] (first compound 0.09487 µM); 0.363 in experiment [1] (first compound 0.3 µM); 0.383 in experiment [2] (first compound 0.02 µM). The relative viability in experiment [2] (first compound 0.2 µM) is 0.35; in experiment [2] (first compound 0.6325 µM) it was 0.29; in experiment [2] (first compound 2 µM) it was 0.329; in experiment [3] (first compound 0.02 µM), 0.752; in experiment [3] (first compound 0.2 µM) it was 0.719; in experiment [3] (first compound 0.6325 µM), 0.701. Also, the relative viability turned out to be 0.786 in experiment [3] (first compound 2 µM); 0.27 in experiment [4] (first compound 0.02 µM); 0.283 in experiment [4] (first compound 0.2 µM); 0.384 in experiment [4] (first compound 0.6325 µM); 0.316 in experiment [4] (first compound 2 µM).

For NCI-H1993, the relative viability in experiment [1] (first compound 0.003 µM) was 0.33; in experiment [1] (first compound 0.009487 µM), 0.536; in experiment [1] (first compound 0.03 µM) it was 0.482; in experiment [1] (first compound 0.09487 µM), 0.446; in experiment [1] (first compound 0.3 µM), 0.513; in experiment [2] (first compound 0.02 µM), 0.607. The relative viability in experiment [2] (first compound 0.2 µM) came to 0.495; in experiment [2] (first compound 0.6325 µM), 0.527; in experiment [2] (first compound 2 µM) it was 0.576; in experiment [3] (first compound 0.02 µM), 0.661; in experiment [3] (first compound 0.2 µM) it was 0.754; in experiment [3] (first compound 0.6325 µM), 0.588. Further, the relative viability is 1.03 in experiment [3] (first compound 2 µM); 0.871 in experiment [4] (first compound 0.02 µM); 0.808 in experiment [4] (first compound 0.2 µM); 0.757 in experiment [4] (first compound 0.6325 µM); 0.834 in experiment [4] (first compound 2 µM).

For the origin of these results see the supplement of paper PMC10307832.
